Measured values reported in patent publication US12630498B2 (Genzyme Corporation, priority 2019, dated 2026).

Legend:
[1] = target: T1, human Cystic Fibrosis Transmembrane Conductance Regulator (CFTR) harboring the ΔF508 mutation (Homo sapiens, UniProt P13569, DEL508-508); assay: H441 cell ΔF508-CFTR-HRP cell surface assay (Emax and EC50); format: cell-based; conditions: for Emax: NCI-H441, NA = Not active
T1 construct: expressed in transfected cells; host or cells: H441 carcinoma line (G418-selected)
How it was run: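 H441 and 41o- bronchial epithelial cells expressing ΔF508-CFTR with an extracellular-loop-4 HRP tag were treated with a 15-point compound series (24.5–0.001 μM) for two nights, H441 at 27° C, 41o- at 37° C with 0.0005 mg/ml doxycycline. Surface HRP luminescence read; % of maximum VX809 signal and EC50 derived.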

[2] = target: T2, CFTR-mediated transepithelial chloride transport in primary human bronchial epithelial cells from a ΔF508 homozygous CF donor (Homo sapiens, UniProt P13569, DEL508-508); assay: TECC24 recording of CFTR-mediated transepithelial chloride transport in CF-HBE cells (AUC fold over DMSO); format: cell-based; conditions: test agent 10 μM, 48 hours incubation, AUC of forskolin-stimulated IEQ relative to DMSO
T2 construct: Primary human bronchial epithelial cells from a ΔF508 homozygous CF donor; host or cells: primary CF-HBE cells, ΔF508 homozygous donor
How it was run: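 Primary ΔF508/ΔF508 CF-HBE cells on inserts exposed to test agent in IL-13-containing medium for 48 h at 36.5 °C. Current-clamp VT/TEER recording in pH 7.4 HEPES saline with benzamil 10 μM, forskolin 10 μM, then CFTRinh-172 20 μM. AUC of equivalent Cl⁻ current between forskolin and inhibitor, expressed as ratio over vehicle.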

T1 sequence (P13569 with tags, fused parts or gaps DEL508-508): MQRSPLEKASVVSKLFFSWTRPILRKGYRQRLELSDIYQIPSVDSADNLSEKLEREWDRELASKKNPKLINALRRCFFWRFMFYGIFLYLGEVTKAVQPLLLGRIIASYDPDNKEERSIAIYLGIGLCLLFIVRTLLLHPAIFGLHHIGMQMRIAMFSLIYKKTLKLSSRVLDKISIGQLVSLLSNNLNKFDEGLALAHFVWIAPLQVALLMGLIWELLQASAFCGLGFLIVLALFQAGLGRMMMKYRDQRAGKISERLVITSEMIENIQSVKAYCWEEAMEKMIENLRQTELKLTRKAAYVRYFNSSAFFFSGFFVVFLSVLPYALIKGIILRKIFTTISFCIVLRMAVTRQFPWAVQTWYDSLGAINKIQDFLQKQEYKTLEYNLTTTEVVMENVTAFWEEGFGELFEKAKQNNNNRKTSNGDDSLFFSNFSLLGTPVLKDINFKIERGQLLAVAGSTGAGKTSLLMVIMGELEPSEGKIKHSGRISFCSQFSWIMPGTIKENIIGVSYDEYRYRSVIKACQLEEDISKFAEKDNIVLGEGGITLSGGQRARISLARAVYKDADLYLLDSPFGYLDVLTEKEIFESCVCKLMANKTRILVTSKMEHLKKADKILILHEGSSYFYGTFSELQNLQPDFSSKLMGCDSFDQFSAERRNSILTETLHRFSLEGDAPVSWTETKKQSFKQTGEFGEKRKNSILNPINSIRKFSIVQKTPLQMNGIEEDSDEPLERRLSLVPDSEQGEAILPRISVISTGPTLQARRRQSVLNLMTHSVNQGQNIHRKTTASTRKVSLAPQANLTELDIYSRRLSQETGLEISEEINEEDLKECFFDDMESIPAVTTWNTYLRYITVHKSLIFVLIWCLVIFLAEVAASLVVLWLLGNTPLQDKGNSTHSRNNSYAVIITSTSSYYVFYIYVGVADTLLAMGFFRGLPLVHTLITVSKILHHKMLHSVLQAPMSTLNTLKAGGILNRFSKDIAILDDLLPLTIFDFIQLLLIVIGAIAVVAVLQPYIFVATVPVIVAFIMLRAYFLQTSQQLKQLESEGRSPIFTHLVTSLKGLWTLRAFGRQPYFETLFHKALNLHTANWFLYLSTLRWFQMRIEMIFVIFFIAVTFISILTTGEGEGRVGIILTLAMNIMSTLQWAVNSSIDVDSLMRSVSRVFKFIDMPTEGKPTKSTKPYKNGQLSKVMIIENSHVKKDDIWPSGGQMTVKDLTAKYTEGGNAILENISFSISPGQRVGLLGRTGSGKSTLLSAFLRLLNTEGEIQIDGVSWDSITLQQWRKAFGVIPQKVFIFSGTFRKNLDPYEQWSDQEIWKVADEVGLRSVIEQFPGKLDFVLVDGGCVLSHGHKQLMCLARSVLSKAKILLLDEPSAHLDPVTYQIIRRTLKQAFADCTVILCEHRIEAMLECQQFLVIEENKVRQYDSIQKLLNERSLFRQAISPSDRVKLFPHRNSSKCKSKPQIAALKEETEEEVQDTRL
T2 sequence (P13569 with tags, fused parts or gaps DEL508-508): as above

Structure (SMILES)	EC50 [1]	Emax [1]	TECC24 AUC fold over DMSO @10 μM [2]
CC(C)(C)[C@H](NC(=O)c1ccc2ccccc2c1OCc1ccc([N+](=O)[O-])cc1)C(=O)O [Example 231, (2S)-3,3-dimethyl-2-[[1-[(4-nitrophenyl)methoxy]naphthalene-2-carbonyl]amino]butanoic Acid]	7.8 µM	70.1%	C (“C” refers to AUC @10 uM <4)
CC(C)(C)C[C@H](NC(=O)c1ccc2ccccc2c1OCc1ccc(C(F)(F)F)cc1)C(=O)O [Example 141, (S)-4,4-dimethyl-2-(1-((4-(trifluoromethyl)benzyl)oxy)-2-naphthamido)pentanoic Acid]	2.3 µM	147%	A (“A” refers to AUC @10 uM >6)
Cc1ccc2ccc(C(=O)N[C@@H](C(=O)O)C(C)(C)C)c(OCc3ccc(C(F)(F)F)cc3)c2c1 [Example 284, (R)-3,3-dimethyl-2-(7-methyl-1-((4-(trifluoromethyl)benzyl)oxy)-2-naphthamido) butanoic Acid]	0.5 µM	173%	C (“C” refers to AUC @10 uM <4)
